36 compounds from ChEMBL document CHEMBL5550137 (Bioorg Med Chem Lett, 2024) can be followed below.

In brackets after ≈: the same amount, converted by molar mass.

The target in data set [1] is T1, Cytochrome P450 1B1 (Homo sapiens, UniProt Q16678).
T1 sequence (Q16678 whole entry): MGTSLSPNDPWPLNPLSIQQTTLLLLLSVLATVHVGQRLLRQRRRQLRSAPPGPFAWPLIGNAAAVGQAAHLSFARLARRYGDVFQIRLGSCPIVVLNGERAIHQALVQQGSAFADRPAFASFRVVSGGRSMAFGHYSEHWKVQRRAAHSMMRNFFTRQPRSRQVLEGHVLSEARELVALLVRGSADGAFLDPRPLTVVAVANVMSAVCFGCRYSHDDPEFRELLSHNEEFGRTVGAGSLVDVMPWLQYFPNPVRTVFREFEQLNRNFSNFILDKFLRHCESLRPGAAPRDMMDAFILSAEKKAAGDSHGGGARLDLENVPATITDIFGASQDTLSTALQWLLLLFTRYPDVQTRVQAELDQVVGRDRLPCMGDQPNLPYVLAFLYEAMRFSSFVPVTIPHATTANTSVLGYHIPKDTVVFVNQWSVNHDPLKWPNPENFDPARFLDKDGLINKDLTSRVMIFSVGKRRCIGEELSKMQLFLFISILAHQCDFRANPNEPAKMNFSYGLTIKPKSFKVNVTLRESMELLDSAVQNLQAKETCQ
Nature of the data set: Inhibition of recombinant human CYP1B1 using 7-ER as substrate in presence of NADPH by fluorescence based assay.

A short description of data set [2]: Solubility in water by HPLC-UV analysis. The class given is physicochemical.
The test system of data set [3] is NCI-H460. Nature of the data set: Anti-cancer activity of human PTX-resistant NCI-H460 cells incubated for 48 hrs by CCK8 assay. In kind it is functional, cell-based. To be noted: NCI-H460, 48 h. (In general: Formazan colour is commonly taken as a measure of viable cells.)
In data set [4] the target is T1, Cytochrome P450 1B1. Nature of the data set: Inhibition of recombinant human CYP1B1 using 7-ER as substrate measured after 33 mins in presence of NADPH by fluorescence based assay. The note with it: 0.55 h.
Data set [5] has as its target T1, Cytochrome P450 1B1. As to the kind of experiment: Inhibition of human CYP1B1 over-expressed in CHO cells preincubated for 3 hrs followed media replacement containing estradiol without compound measured after 3 hrs. The class given is cell-based.
In data set [6] the target is T1, Cytochrome P450 1B1. Nature of the data set: Mixed inhibition of recombinant human CYP1B1 using 7-ER as substrate in presence of NADPH by fluorescence based assay.
Data set [7] deals with HEK-293T. Nature of the data set: Cytotoxicity against HEK293T cells expressing AhR/luc incubated for 48 hrs by CCK8 assay. In kind it is toxicity, cell-based. The note with it: human.

Regarding `O=C1c2cccc3c(Br)ccc(c23)C(=O)N1Cc1cccnc1`, the IC50 (usually the midpoint of a concentration-inhibition curve) in data set [1] is 1.81 nM. On the same count and under the same terms, in the case of `O=C1c2cccc3c(Br)ccc(c23)C(=O)N1Cc1cnccn1` it was 156 nM; in that of `CCN1C(=O)c2cccc3c(O)ccc(c23)C1=O`, greater than 1000 nM.

Turning to `O=C1c2cccc3c(Br)ccc(c23)C(=O)N1CC1CCCCC1`, the IC50 in data set [1] worked out at 7.99 nM. For the compound `O=C1c2cccc3c(Br)ccc(c23)C(=O)N1Cc1ccccn1`, in data set [1], the IC50 was found to be 148 nM. `O=C1c2cccc3c(Br)ccc(c23)C(=O)N1Cc1ccncc1`: the IC50 in data set [1] stood at 1.42 nM.

As for `O=C1c2cccc3c(Br)ccc(c23)C(=O)N1Cc1nccs1`, in data set [1], the IC50 was 36.7 nM. As for `O=C1c2cccc3c(Br)ccc(c23)C(=O)N1Cc1ccc2ncccc2c1`, in data set [1], the IC50 stood at 30 nM. Consider `O=C1c2cccc3c(Br)ccc(c23)C(=O)N1CCCCc1ccccc1`, for which, in data set [1], the concentration for half-maximal inhibition (IC50) worked out at 57.3 nM. For `O=C1c2cccc3c(Br)ccc(c23)C(=O)N1CCc1ccccc1`, in data set [1], the IC50 stood at 5.36 nM. For `CCN1C(=O)c2cccc3c(Br)ccc(c23)C1=O`, the IC50 in data set [1] was found to be 5.63 nM. Moreover, the concentration in solution in data set [2] (solubility) was 103 µg/mL (≈ 340 µM). As for `CCN1C(=O)c2cccc3cccc(c23)C1=O`, in data set [1], the IC50 came out at 605 nM.

In data set [3], `CC(=O)O[C@H]1C(=O)[C@@]2(C)[C@H]([C@H](OC(=O)c3ccccc3)[C@]3(O)C[C@H](OC(=O)[C@H](O)[C@@H](NC(=O)c4ccccc4)c4ccccc4)C(C)=C1C3(C)C)[C@]1(OC(C)=O)CO[C@@H]1C[C@@H]2O` [PACLITAXEL] came in with an IC50 of 633 nM. For `Nc1ccc2c3c(cccc13)C(=O)N(Cc1cncnc1)C2=O`, in data set [1], the IC50 worked out at 67.1 nM. Take `CCN1C(=O)c2cccc3cc(Br)cc(c23)C1=O`: the IC50 in data set [1] was 5.32 nM. For the compound `O=C1c2cccc3c(Br)ccc(c23)C(=O)N1CC1CCCC1`, the IC50 in data set [1] is 11.7 nM. With `O=C1c2cccc3c(Br)ccc(c23)C(=O)N1Cc1ncccn1`, the IC50 in data set [1] is 91.7 nM.

On to `O=C1c2cccc3cccc(c23)C(=O)N1Cc1cncnc1`, for which the IC50 in data set [1] was determined as 221 nM. Still for that read-out and setting: in the case of `O=C1c2cccc3c(Br)ccc(c23)C(=O)N1CC1CC1` it was 19.2 nM; in that of `O=C1c2cccc3c(Br)ccc(c23)C(=O)N1Cc1c[nH]cn1`, 173 nM.

With `O=C1c2cccc3c(Br)ccc(c23)C(=O)N1Cc1ccon1`, in data set [1], the IC50 is 42.3 nM. Still for that read-out and setting: the result for `CCN1C(=O)c2cccc3ccc(Br)c(c23)C1=O` reads 3.52 nM; that for `O=C1c2cccc3c(Br)ccc(c23)C(=O)N1Cc1ccccc1`, 1.95 nM. For `O=C1c2cccc3c(Br)ccc(c23)C(=O)N1Cc1cn[nH]c1`, the IC50 in data set [1] was determined as 0.21 nM. As to `Cl.O=C1c2cccc3c(Br)ccc(c23)C(=O)N1Cc1cncnc1`, the concentration in solution in data set [2] (solubility) was 262 µg/mL. On to `O=C1c2cccc3c(Br)ccc(c23)C(=O)N1CC1CN(Cc2ccccc2)CCO1` (stereo unspecified), for which, in data set [1], the IC50 was greater than 1000 nM. Same read-out and setting: the result for `O=C1c2cccc3c(Br)ccc(c23)C(=O)N1CC1CCC1` reads 3.64 nM; that for `O=C1c2cccc3c(Br)ccc(c23)C(=O)N1CCCc1ccccc1`, 16.8 nM; that for `O=C1c2cccc3c(Br)ccc(c23)C(=O)N1CC1Oc2ccccc2O1`, 12 nM. Same read-out and setting: the result for `O=C1c2cccc3c(Br)ccc(c23)C(=O)N1Cc1ncco1` reads 31 nM; that for `O=C1c2cccc3c(Br)ccc(c23)C(=O)N1Cc1cc[nH]n1`, 17.6 nM.

`O=C1c2cccc3c(O)ccc(c23)C(=O)N1Cc1cncnc1`: the IC50 in data set [1] was 56.6 nM. On to `O=C1c2cccc3c(Br)ccc(c23)C(=O)N1Cc1cncnc1`, for which the IC50 in data set [1] came to 0.04 nM; in data set [5], 0.47 nM. The “inhibition (INH)” value in data set [4] is “Not Active”. Also, the Ki (as a rule, the dissociation constant of the complex between target and ligand, obtained from inhibition or displacement) in data set [6] amounted to 0.0217 nM. In addition, the Activity entry in data set [7] is “Non-Toxic”. For the compound `O=C1c2cccc3c(Br)ccc(c23)C(=O)N1Cc1ccncn1`, the IC50 in data set [1] was 22.7 nM. The same measure, in the same setting: the result for `O=C1c2cccc3c(Br)ccc(c23)C(=O)N1Cc1cccs1` reads 3.42 nM; that for `O=C1c2cccc3c(Br)ccc(c23)C(=O)N1Cc1ccc[nH]1`, 0.39 nM.
